Data from BindingDB's records for doi:10.1016/S0960-894X(01)80270-5 (1994).
pIC50: −log10 of the molar value.

Legend:
[1] = target: T1, Neutrophil elastase (Homo sapiens, UniProt P08246); assay: ChEBML_86533
T1 sequence (P08246 whole entry): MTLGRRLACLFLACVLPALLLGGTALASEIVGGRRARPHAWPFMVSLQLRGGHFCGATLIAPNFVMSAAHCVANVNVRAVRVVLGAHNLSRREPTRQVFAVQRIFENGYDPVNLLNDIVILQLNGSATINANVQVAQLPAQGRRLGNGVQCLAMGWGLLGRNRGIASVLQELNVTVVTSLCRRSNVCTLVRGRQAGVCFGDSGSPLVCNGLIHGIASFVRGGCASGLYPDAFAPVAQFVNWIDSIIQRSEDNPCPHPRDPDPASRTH
Protocol: Inhibitory activity against human leukocyte elastase using MeO-Suc-Ala-Ala-Pro-Val-pNA (416 uM) as substrate;No Inhibition

[2] = target: T1, Neutrophil elastase; assay: Inhibitory activity against human leukocyte elastase using MeO-Suc-Ala-Ala-Pro-Val-pNA (416 uM) as substrate

Row | pIC50 [1] | pIC50 [2] | SMILES
1 |  | < 3.00 | COc1ccc2c(c1)c1c(O)oc(=O)nc1n2CCc1ccccc1 [6-Methoxy-9-phenethyl-1,9-dihydro-[1,3]oxazino[4,5-b]indole-2,4-dione]
2 | < 3.00 |  | COc1ccc2c(c1)c1c(O)oc(=O)nc1n2CC(OC)OC [9-(2,2-Dimethoxy-ethyl)-6-methoxy-1,9-dihydro-[1,3]oxazino[4,5-b]indole-2,4-dione]
3 | < 3.00 |  | COc1ccc2c(c1)c1c(O)oc(=O)nc1n2C1CCCCC1 [9-Cyclohexyl-6-methoxy-1,9-dihydro-[1,3]oxazino[4,5-b]indole-2,4-dione]
4 | < 3.00 |  | COCCn1c2ccc(OC(C)=O)cc2c2c(O)oc(=O)nc21 [Acetic acid 9-(2-methoxy-ethyl)-2,4-dioxo-1,2,4,9-tetrahydro-[1,3]oxazino[4,5-b]indol-6-yl ester]

Continued, compound first:

Row | SMILES | pIC50 [1] | pIC50 [2]
5 | CCCCn1c(C)c(C)c2c(O)oc(=O)nc21 [1-Butyl-2,3-dimethyl-1,7-dihydro-5-oxa-1,7-diaza-indene-4,6-dione] | < 3.00 | 
6 | Cc1c(C)n(C2CCCCC2)c2nc(=O)oc(O)c12 [1-Cyclohexyl-2,3-dimethyl-1,7-dihydro-5-oxa-1,7-diaza-indene-4,6-dione] | < 3.00 | 
7 | COCCn1c2ccc(OC)cc2c2c(O)oc(=O)nc21 [6-Methoxy-9-(2-methoxy-ethyl)-1,9-dihydro-[1,3]oxazino[4,5-b]indole-2,4-dione] | < 3.00 | 
8 | COc1ccc2c(c1)c1c(O)oc(=O)nc1n2Cc1ccccn1 [6-Methoxy-9-pyridin-2-ylmethyl-1,9-dihydro-[1,3]oxazino[4,5-b]indole-2,4-dione] | < 3.00 | 
